The values that follow come from paper PMC4704150 (Antimicrobial Agents and Chemotherapy, 2015).

Like-named read-outs stand apart in the source and are kept apart here. Marks after values point to notes of the source that are not given here.

A short description of data set [1]: Drug-drug interaction study, 2D regimen with rosuvastatin. Type of data set: in vivo, human healthy volunteers. The settings on record: for increase in AUC upon coadministration / increase in Cmax upon coadministration: rosuvastatin + 2D regimen vs alone.
Data set [2] is classed as in vivo, human healthy volunteers. Particulars: for change in the Cmax and AUC values in the presence of the 2D regimen: except escitalopram AUC.
The test system of data set [3] is genotypes other than genotype 1. The settings on record: cited from earlier work.
The nature of data set [4]: Drug-drug interaction study, 2D regimen with omeprazole. The format is in vivo, human healthy volunteers. Particulars: for change in the Cmax and AUC values upon coadministration: 2D regimen + omeprazole vs 2D regimen alone.
Data set [5] in a line: Drug-drug interaction study, 2D regimen with digoxin. Type of data set: in vivo, human healthy volunteers. The settings on record: for change in the Cmax and AUC values upon coadministration: 2D regimen + digoxin vs 2D regimen alone.
Data set [6] is described as follows: Drug-drug interaction study, 2D regimen with duloxetine, plasma pharmacokinetics. The format is in vivo, human healthy volunteers. The settings on record: for change in the Cmax and AUC values upon coadministration: duloxetine + 2D regimen vs alone.
Data set [7] can be described thus: Drug-drug interaction study, 2D regimen with ketoconazole. The format is in vivo, human healthy volunteers. Particulars: ketoconazole + 2D regimen vs alone.
Data set [8] relates to HCV subtypes 1a, 1b, 2a, 3a, 4a, and 6a. Particulars: cited from earlier work.
Data set [9] is classed as in vivo, human healthy volunteers. Particulars: coadministration vs alone; except in the ketoconazole study.
Data set [10] is described as follows: Drug-drug interaction study, 2D regimen with warfarin. Type of data set: in vivo, human healthy volunteers. Particulars: for change in the Cmax and AUC values upon coadministration: warfarin + 2D regimen vs alone; for Cmax, Coadministration / AUC (AUC∞), Alone: warfarin study, geometric mean (%CV); for Cmax, Coadministration: warfarin + 2D regimen; for AUC (AUC∞), Alone: warfarin without 2D regimen.

Data set [11] is described as follows: Drug-drug interaction study, 2D regimen with pravastatin. The settings on record: for increase in AUC upon coadministration / increase in Cmax upon coadministration: pravastatin + 2D regimen vs alone. The format is in vivo, human healthy volunteers.
For data set [12] the following is noted: in vitro; cited from earlier work.
Data set [13] has as its system breast cancer resistance protein (BCRP). Particulars: in vitro, at clinically relevant concentrations; cited from earlier work.
For data set [14] the following is noted: cited from earlier work.
Data set [15] has as its system organic anion-transporting polypeptide 1B1/B3 (OATP1B1/B3). Particulars: in vitro, at clinically relevant concentrations; cited from earlier work.
In the next data set the test system is P-glycoprotein (P-gp). The settings on record: in vitro, at clinically relevant concentrations; cited from earlier work.
For data set [16] the following is noted: human, in vivo.
Setting [17] is: escitalopram + 2D regimen vs escitalopram alone.
The mark [18] stands for this setting: escitalopram study, escitalopram + 2D regimen, geometric mean (%CV).
The mark [19] stands for this setting: omeprazole + 2D regimen vs omeprazole alone.
Setting [20] is: digoxin + 2D regimen vs digoxin alone.
Where [21] appears, read: 2D regimen + rosuvastatin vs 2D regimen alone.

`CC(C)c1nc(N(C)S(C)(=O)=O)nc(-c2ccc(F)cc2)c1/C=C/[C@@H](O)C[C@@H](O)CC(=O)O` [Rosuvastatin, rosuvastatin]: in [1], the “increase in AUC upon coadministration” value was determined as 33% and the “increase in Cmax upon coadministration” value was 161%. The “increase in exposures upon coadministration” value in [1] (rosuvastatin + 2D regimen vs rosuvastatin alone) is no more than 161%.
`CNCCC[C@@]1(c2ccc(F)cc2)OCc2cc(C#N)ccc21` [S-Desmethylcitalopram, S-desmethylcitalopram]: in data set [2] (setting [17]), the “change in the Cmax and AUC values in the presence of the 2D regimen” value is recorded as no more than 20%. For the same compound, in data set [2] (setting [18]), the “AUC (AUC∞), Coadministration” value is given as 167 (11)^b ng · h/ml and the “Cmax, Coadministration” value is given as 1.77 (26) ng/ml. Also, the “AUC (AUC∞), Alone” value in data set [2] (escitalopram study, escitalopram without 2D regimen, geometric mean (%CV)) is reported as 153 (16)^b ng · h/ml.
Regarding `COc1c(-c2ccc3cc(NS(C)(=O)=O)ccc3c2)cc(-n2ccc(=O)[nH]c2=O)cc1C(C)(C)C` [Dasabuvir, dasabuvir], the “activity against HCV genotypes other than genotype 1” value in [3] is given as “not active”.
Compound `COc1ccc2[nH]c([S+]([O-])Cc3ncc(C)c(OC)c3C)nc2c1` (stereo not drawn) [Omeprazole, omeprazole] registered an AUC(0-t) in data set [4] (human, plasma, 40 mg) of 1170 ng·h/mL. For the same compound, in data set [4] (setting [19]), the “decrease in exposures upon coadministration” value was “approximately 50%”, the “reduction in AUC in the presence of the 2D regimen” value stood at 54% and the “reduction in Cmax in the presence of the 2D regimen” value is reported as 52%.
Take `C[C@H]1O[C@@H](O[C@H]2[C@@H](O)C[C@H](O[C@H]3[C@@H](O)C[C@H](O[C@H]4CC[C@@]5(C)[C@H](CC[C@@H]6[C@@H]5C[C@@H](O)[C@]5(C)[C@@H](C7=CC(=O)OC7)CC[C@]65O)C4)O[C@@H]3C)O[C@@H]2C)C[C@H](O)[C@@H]1O` [Digoxin, digoxin]: in [5] (setting [20]), the “increase in AUC upon coadministration” value is listed as 36%, the “increase in C24 upon coadministration” value came out at 24% and the “increase in Cmax upon coadministration” value came out at 58%. The “ratio of fraction excreted (fraction of unchanged drug eliminated in the urine)” value in data set [5] (digoxin + 2D regimen vs digoxin alone, urine) came to 1.01. The compound also gave an AUC(0-inf) in [5] (human, plasma, 0.5 mg) of 27.8 ng·h/mL.
With `COC(=O)N[C@H](C(=O)N1CCC[C@H]1C(=O)Nc1ccc([C@@H]2CC[C@@H](c3ccc(NC(=O)[C@@H]4CCCN4C(=O)[C@@H](NC(=O)OC)C(C)C)cc3)N2c2ccc(C(C)(C)C)cc2)cc1)C(C)C` [Ombitasvir, ombitasvir], the “change in the Cmax and AUC values upon coadministration” value in data set [6] is reported as no more than 10%; in [10], no more than 15%; in data set [5], no more than 15%; in data set [4] it was no more than 7%. Also, the “decrease in Cmax upon coadministration” value in data set [7] was determined as 2%. The “increase in AUC upon coadministration” value in [7] is reported as 26%. Further, the “in vitro antiviral activity” value in data set [8] was “show in vitro antiviral activity”. Besides, in data set [9], the “Tmax and t1/2 (where calculated)” value is recorded as “not affected in a meaningful way”. The “decrease in Cmax or AUC value upon coadministration” value in data set [11] (2D regimen + pravastatin vs 2D regimen alone) was no more than 6%. For the same compound, in [12], the metabolic pathway entry is given as “predominantly metabolized by amide hydrolysis followed by oxidative metabolism”. The “change in Cmax and AUC values upon coadministration” value in data set [1] (setting [21]) is given as no more than 12%. Further, the “lower Cmax upon coadministration” value in [1] (setting [21]) was 12%.
Regarding `CC(=O)C[C@@H](c1ccccc1)c1c(O)c2ccccc2oc1=O` [S-Warfarin, S-warfarin], in [10], the “change in the Cmax and AUC values upon coadministration” value was no more than 15%; the “Cmax, Coadministration” value was 240 (14) ng/ml; the “AUC (AUC∞), Alone” value was 13,000 (25)^b ng · h/ml.
For the compound `CNCC[C@H](Oc1cccc2ccccc12)c1cccs1` [Duloxetine, duloxetine], in data set [6], the “change in the Cmax and AUC values upon coadministration” value is no more than 20%. The compound also came in with a total exposure AUC(0-inf) in data set [6] (human, plasma, oral, 60 mg) of 648 ng·h/mL.
For the compound `CN(C)CCC[C@@]1(c2ccc(F)cc2)OCc2cc(C#N)ccc21` [Escitalopram, escitalopram], in data set [2] (setting [17]), the “decrease in AUC in the presence of the 2D regimen” value is reported as 25%; the “change in the Cmax and AUC values in the presence of the 2D regimen” value was no more than 20%. The AUC(0-inf) in [2] (human, plasma, 10 mg) came to 262 ng·h/mL.
As to `CC[C@H](C)C(=O)O[C@H]1C[C@H](O)C=C2C=C[C@H](C)[C@H](CC[C@@H](O)C[C@@H](O)CC(=O)O)[C@H]21` [Pravastatin, pravastatin], in data set [11], the “increase in AUC upon coadministration” value amounted to 76% and the “increase in Cmax upon coadministration” value is on record as 43%.
For `Cc1cnc(C(=O)N[C@H]2CCCCC/C=C\[C@@H]3C[C@@]3(C(=O)NS(=O)(=O)C3CC3)NC(=O)[C@@H]3C[C@@H](Oc4nc5ccccc5c5ccccc45)CN3C2=O)cn1` [Paritaprevir, paritaprevir], the “change in the Cmax and AUC values upon coadministration” value is no more than 10% in [6], no more than 15% in [10], no more than 15% in data set [5] and no more than 7% in data set [4]. In data set [13], the BCRP inhibition result is “potential inhibitors”. In addition, the “increase in AUC upon coadministration” value in data set [7] is listed as 116%; in [11] it was 33%; in data set [1], 22%. Besides, the figures for the “increase in Cmax upon coadministration” value in data set [7], in data set [11] and in [1] were 72%, 44% and 40%, respectively. Further, the “mean t1/2, fold longer upon coadministration” value in data set [7] is “more than 2 fold”. Further, the “increase in exposures upon coadministration” value in data set [7] (Cmax and AUC) is given as “up to 116%”. Further, the “exposures higher than those observed with the 150-mg paritaprevir dose” value in data set [14] (paritaprevir 200 mg) was “approximately 93%”; in [14] (paritaprevir 250 mg), roughly 250%. The “in vitro antiviral activity” value in data set [8] is recorded as “show in vitro antiviral activity”. Moreover, the OATP1B1/B3 inhibition result in data set [15] was “inhibitor”. Further, the “Tmax and t1/2 (where calculated)” value in data set [9] is on record as “not affected in a meaningful way”. Also, in the data set with P-glycoprotein (P-gp), the P-gp inhibition entry is recorded as “potential inhibitors”. For the same compound, in data set [12], the metabolic pathway result is given as “primarily metabolized by cytochrome P450 3A (CYP3A)”.
Turning to `CC(C)c1nc(CN(C)C(=O)N[C@H](C(=O)N[C@@H](Cc2ccccc2)C[C@H](O)[C@H](Cc2ccccc2)NC(=O)OCc2cncs2)C(C)C)cs1` [Ritonavir, ritonavir], the “change in the Cmax and AUC values upon coadministration” value in [6] is no more than 10%; in data set [10] it was no more than 15%; in [5] it was no more than 15%; in data set [4] it was no more than 7%. Besides, the “Tmax and t1/2 (where calculated)” value in data set [9] is recorded as “not affected in a meaningful way”. In addition, the “increase in AUC upon coadministration” value in [11] turned out to be 37%. The “increase in Cmax upon coadministration” value in data set [11] is on record as 37%. For the same compound, the metabolic pathway entry in [12] is “primarily metabolized by cytochrome P450 3A (CYP3A)”. The “change in Cmax and AUC values upon coadministration” value in [1] (setting [21]) is recorded as no more than 12%.
As to `CC(=O)C[C@H](c1ccccc1)c1c(O)c2ccccc2oc1=O` [R-Warfarin, R-warfarin], in [10], the “Cmax, Coadministration” value is recorded as 255 (16) ng/ml and the “AUC (AUC∞), Alone” value is recorded as 19,900 (21)^b ng · h/ml.
Consider `C=CCN1CC[C@]23c4c5ccc(O)c4O[C@H]2C(=O)CC[C@@]3(O)[C@H]1C5` [Naloxone, naloxone], for which, in data set [16], the “AUC (AUCtau, AUC24), dose normalized, Alone” value is 139 (53)^d^,^j pg · h/ml/mg; the “AUC (AUCtau, AUC24), dose normalized, Coadministration” value is reported as 154 (76)^d^,^j pg · h/ml/mg; the “Cmax, dose normalized, Alone” value is 59.0 (44)^i pg/ml/mg; the “Cmax, dose normalized, Coadministration” value is 58.1 (61)^i pg/ml/mg. Moreover, the “change in the Cmax and AUC values upon coadministration” value in [16] is no more than 11%.

What is called AUC(0-t) is exposure summed from dosing to a finite time, without extrapolation to infinity. The low end stands for less exposure, the high end for more exposure. As usually defined, the AUC(0-inf) is the area under the concentration-time curve extrapolated to infinity.
